Like-named read-outs stand apart in the source and are kept apart here.
Legend:
[1] = tested on: CAKI-1; assay: NCI-60 anticancer screen (SRB; single dose and five doses); settings: Homo sapiens; for activity at 10 µM: CAKI-1, 48 h, read-out: Growth Percentage
[2] = tested on: MDA-MB-468; assay: as above; format: cell-based, human; settings: for activity at 10 µM: 48 h, MDA-MB-468, dose of 10 μM, read-out: Growth Percentage
Outline: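 NCI panel of about 60 human tumor cell lines treated with compound at a single concentration (10μM) for 48 h. Growth measured by SRB protein staining and expressed as percent growth of treated versus untreated control cells.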

[3] = tested on: COLO 205; assay: as above; settings: Homo sapiens; for activity at 10 µM: COLO 205, 48 h, read-out: Growth Percentage
[4] = tested on: MCF7; assay: as above; settings: Homo sapiens; for activity at 10 µM: MCF7, 48 h, read-out: Growth Percentage
[5] = tested on: UO-31; assay: as above; settings: Homo sapiens; for activity at 10 µM: UO-31, 48 h, read-out: Growth Percentage
[6] = tested on: OVCAR-3; assay: cells; settings: Homo sapiens; for activity at 10 µM: OVCAR-3, 48 h, read-out: Growth Percentage
[7] = tested on: K-562; assay: NCI-60 anticancer screen (SRB; single dose and five doses); settings: Homo sapiens; for activity at 10 µM: K562, 48 h, read-out: Growth Percentage
[8] = tested on: HS 578T; assay: as above; settings: Homo sapiens; for activity at 10 µM: 48 h, read-out: Growth Percentage
[9] = tested on: NCI-H322M; assay: as above; settings: Homo sapiens; for activity at 10 µM: 48 h, read-out: Growth Percentage
[10] = tested on: OVCAR-8; assay: as above; settings: Homo sapiens; for activity at 10 µM: OVCAR-8, 48 h, read-out: Growth Percentage
[11] = tested on: HT29; assay: as above; settings: Homo sapiens; for activity at 10 µM: HT-29, 48 h, read-out: Growth Percentage
[12] = tested on: SF-268; assay: as above; settings: Homo sapiens; for activity at 10 µM: SF-268, 48 h, read-out: Growth Percentage
[13] = tested on: NCI-H522; assay: as above; settings: Homo sapiens; for activity at 10 µM: NCI-H522, 48 h, read-out: Growth Percentage
[14] = tested on: NCI-H226; assay: as above; settings: Homo sapiens; for activity at 10 µM: NCI-H226, 48 h, read-out: Growth Percentage
[15] = tested on: IGROV1; assay: as above; settings: Homo sapiens; for activity at 10 µM: IGROV-1, 48 h, read-out: Growth Percentage
[16] = tested on: UACC-62; assay: as above; settings: Homo sapiens; for activity at 10 µM: UACC-62, 48 h, read-out: Growth Percentage
[17] = tested on: HCT-15; assay: as above; settings: Homo sapiens; for activity at 10 µM: HCT-15, 48 h, read-out: Growth Percentage
[18] = tested on: ACHN; assay: as above; settings: Homo sapiens; for activity at 10 µM: 48 h, read-out: Growth Percentage
[19] = tested on: SNB-75; assay: as above; settings: Homo sapiens, SNB-75, 48 h, read-out: Growth Percentage
[20] = tested on: HOP-92; assay: as above; settings: Homo sapiens; for activity at 10 µM: HOP-92, 48 h, read-out: Growth Percentage
[21] = tested on: SK-MEL-2; assay: as above; settings: Homo sapiens; for activity at 10 µM: SK-MEL-2, 48 h, read-out: Growth Percentage
[22] = tested on: HCT-116; assay: as above; settings: Homo sapiens; for activity at 10 µM: HCT-116, 48 h, read-out: Growth Percentage
[23] = tested on: 60 human tumor cell lines panel; assay: NCI-60 anticancer screen, whole panel (means and ranges over the cell lines); format: cell-based; settings: for activity at 10 µM: Homo sapiens, 48 h
[24] = tested on: U251; assay: NCI-60 anticancer screen (SRB; single dose and five doses); settings: Homo sapiens; for activity at 10 µM: U-251, 48 h, read-out: Growth Percentage
[25] = tested on: EKVX; assay: as above; settings: Homo sapiens; for activity at 10 µM: 48 h, read-out: Growth Percentage
[26] = mean over the tested cell lines, dose of 10 μM, read-out: Mean growth percentage
[27] = five doses, mean graph midpoint over all cell lines
[28] = read-out: growth percentages against most of the tested cells (lowest to highest)

Cc1[nH]c(=S)sc1C(=O)/C=C/c1ccc([N+](=O)[O-])cc1 [2i, (E)-1-(4-Methyl-2-Thioxo-2,3-Dihydrothiazol-5-yl)-3-(4-Nitrophenyl)Prop-2-En-1-One]
GI50 ([1]; CAKI-1): 13.9 µM
activity at 10 µM [1]: 31.1%
CC50 ([1]; CAKI-1, read-out: LC50): 52.7 µM
IC (TGI) ([1]; CAKI-1, read-out: TGI): 27.1 µM
activity at 10 µM ([2]; Homo sapiens): -18.9%
GI50 ([2]; Homo sapiens, MDA-MB-468, Breast Cancer, five dose): 2.2 µM
CC50 ([2]; Homo sapiens, MDA-MB-468, Breast Cancer, five dose, read-out: LC50 (the source's name)): 31.4 µM
TGI ([2]; MDA-MB-468, Breast Cancer, five dose): 8 µM
GI50 ([3]; COLO 205): 15.9 µM
activity at 10 µM [3]: 91.5%
CC50 ([3]; COLO 205, read-out: LC50): > 100 µM
IC (TGI) ([3]; COLO 205, read-out: TGI): 41.1 µM
GI50 ([4]; MCF7): 2.67 µM
activity at 10 µM [4]: 5.51%
CC50 ([4]; MCF7, read-out: LC50): 51.3 µM
IC (TGI) ([4]; MCF7, read-out: TGI): 11.7 µM
GI50 ([5]; UO-31): 4.86 µM
activity at 10 µM [5]: -41.3%
IC (TGI) ([5]; UO-31, read-out: TGI): 18.8 µM
GI50 ([6]; OVCAR-3): 2.22 µM
activity at 10 µM [6]: -6%
CC50 ([6]; OVCAR-3, read-out: LC50): 16.6 µM
IC (TGI) ([6]; OVCAR-3, read-out: TGI): 5.28 µM
GI50 ([7]; K562): 3.5 µM
activity at 10 µM [7]: 12.3%
CC50 ([7]; K562, read-out: LC50): > 100 µM
IC (TGI) ([7]; K562, read-out: TGI): > 100 µM
GI50 [8]: 13 µM
activity at 10 µM [8]: 68.1%
CC50 ([8]; read-out: LC50): 80.9 µM
IC (TGI) ([8]; read-out: TGI): 32.4 µM
GI50 [9]: 11 µM
activity at 10 µM [9]: 50.7%
CC50 ([9]; read-out: LC50): 54.6 µM
IC (TGI) ([9]; read-out: TGI): 24.5 µM
GI50 ([10]; OVCAR-8): 7.73 µM
activity at 10 µM [10]: 7.06%
CC50 ([10]; OVCAR-8, read-out: LC50): 65.2 µM
IC (TGI) ([10]; OVCAR-8, read-out: TGI): 23.9 µM
GI50 ([11]; HT-29): 10.7 µM
activity at 10 µM [11]: 62.8%
CC50 ([11]; HT-29, read-out: LC50): 68.7 µM
IC (TGI) ([11]; HT-29, read-out: TGI): 27.1 µM
GI50 ([12]; SF-268): 15.6 µM
activity at 10 µM [12]: 47.4%
CC50 ([12]; SF-268, read-out: LC50): 67.3 µM
IC (TGI) ([12]; SF-268, read-out: TGI): 32.4 µM
GI50 ([13]; NCI-H522): 9.37 µM
activity at 10 µM [13]: 33%
CC50 ([13]; NCI-H522, read-out: LC50): 51.5 µM
IC (TGI) ([13]; NCI-H522, read-out: TGI): 22.5 µM
GI50 ([14]; NCI-H226): 15.6 µM
activity at 10 µM [14]: 91.4%
CC50 ([14]; NCI-H226, read-out: LC50): > 100 µM
IC (TGI) ([14]; NCI-H226, read-out: TGI): 42.1 µM
GI50 ([15]; IGROV-1): 4.43 µM
activity at 10 µM [15]: 16.1%
CC50 ([15]; IGROV-1, read-out: LC50): 50.8 µM
IC (TGI) ([15]; IGROV-1, read-out: TGI): 14.9 µM
GI50 ([16]; UACC-62): 10.5 µM
activity at 10 µM [16]: 47.5%
IC (TGI) ([16]; UACC-62, read-out: TGI): 22.4 µM
GI50 ([17]; HCT-15): 2.46 µM
activity at 10 µM [17]: -62.1%
CC50 ([17]; HCT-15, read-out: LC50): 33.7 µM
IC (TGI) ([17]; HCT-15, read-out: TGI): 7.86 µM
GI50 [18]: 11.3 µM
activity at 10 µM [18]: 3.88%
CC50 ([18]; read-out: LC50): 48.4 µM
IC (TGI) ([18]; read-out: TGI): 23.3 µM
activity at 10 µM [19]: 36%
GI50 ([20]; HOP-92): 12.2 µM
activity at 10 µM [20]: 57.6%
CC50 ([20]; HOP-92, read-out: LC50): 64.4 µM
IC (TGI) ([20]; HOP-92, read-out: TGI): 28 µM
GI50 ([21]; SK-MEL-2): 13.6 µM
activity at 10 µM [21]: 49.5%
CC50 ([21]; SK-MEL-2, read-out: LC50): 62 µM
IC (TGI) ([21]; SK-MEL-2, read-out: TGI): 29 µM
GI50 ([22]; HCT-116): 2.78 µM
activity at 10 µM [22]: -47.8%
CC50 ([22]; HCT-116, read-out: LC50): 44.3 µM
IC (TGI) ([22]; HCT-116, read-out: TGI): 7.89 µM
activity at 10 µM [23, 26]: 25.2%
activity at 10 µM ([23]; range over the cell lines, dose of 10 μM, read-out: growth percentages against most of the tested cells (lowest to highest)): -86.2 to 108%
Log10GI50 _MID [23, 27]: -5.13 Molar
Log10LC50 _MID [23, 27]: -4.25 Molar
Log10TGI _MID [23, 27]: -4.62 Molar
GI50 ([24]; U-251): 4.1 µM
activity at 10 µM [24]: 13.7%
CC50 ([24]; U-251, read-out: LC50): 53 µM
IC (TGI) ([24]; U-251, read-out: TGI): 17 µM
GI50 [25]: 16.4 µM
activity at 10 µM [25]: 74.7%
CC50 ([25]; read-out: LC50): 58.1 µM
IC (TGI) ([25]; read-out: TGI): 30.9 µM

Cc1[nH]c(=S)sc1C(=O)/C=C/c1ccc(N(C)C)cc1 [2k, (E)-3-(4-(Dimethylamino)Phenyl)-1-(4-Methyl-2-Thioxo-2,3-Dihydrothiazol-5-yl)Prop-2-En-1-One]
activity at 10 µM [1]: 68.6%
activity at 10 µM ([2]; Homo sapiens): 35.4%
activity at 10 µM [3]: 115%
activity at 10 µM [4]: 60%
activity at 10 µM [5]: 48.3%
activity at 10 µM [6]: 82.2%
activity at 10 µM [7]: 47%
activity at 10 µM [8]: 118%
activity at 10 µM [9]: 81.1%
activity at 10 µM [10]: 83.4%
activity at 10 µM [11]: 94%
activity at 10 µM [12]: 99.3%
activity at 10 µM [13]: 58.9%
activity at 10 µM [14]: 88.3%
activity at 10 µM [15]: 82.3%
activity at 10 µM [16]: 58.7%
activity at 10 µM [17]: 64.4%
activity at 10 µM [18]: 75.7%
activity at 10 µM [19]: 96%
activity at 10 µM [20]: 119%
activity at 10 µM [21]: 88.9%
activity at 10 µM [22]: 72.2%
activity at 10 µM [23, 28]: 35.4 to 130%
activity at 10 µM [23, 26]: 77.7%
activity at 10 µM [24]: 67.1%
activity at 10 µM [25]: 67%

Cc1ccc(/C=C/C(=O)c2sc(=S)[nH]c2C)cc1 [2j, (E)-1-(4-Methyl-2-Thioxo-2,3-Dihydrothiazol-5-yl)-3-(p-Tolyl)Prop-2-En-1-One]
activity at 10 µM [1]: 43.4%
activity at 10 µM ([2]; Homo sapiens): 11.8%
activity at 10 µM [3]: 122%
activity at 10 µM [4]: 28.3%
activity at 10 µM [5]: 46.8%
activity at 10 µM [6]: 15%
activity at 10 µM [7]: 34.2%
activity at 10 µM [8]: 101%
activity at 10 µM [9]: 62.1%
activity at 10 µM [10]: 17.3%
activity at 10 µM [11]: 98.7%
activity at 10 µM [12]: 86.9%
activity at 10 µM [13]: 60.2%
activity at 10 µM [14]: 93.8%
activity at 10 µM [15]: 83.4%
activity at 10 µM [16]: 59.4%
activity at 10 µM [17]: 38.6%
activity at 10 µM [18]: 71.2%
activity at 10 µM [19]: 78.1%
activity at 10 µM [20]: 98%
activity at 10 µM [21]: 89.8%
activity at 10 µM [22]: 46.7%
activity at 10 µM [23, 28]: 11.8 to 131%
activity at 10 µM [23, 26]: 63.3%
activity at 10 µM [24]: 60.4%
activity at 10 µM [25]: 55.5%

Source: publication PMC11435058, “Synthesis of New Thiazole-Privileged Chalcones as Tubulin Polymerization Inhibitors with Potential Anticancer Activities” (Pharmaceuticals, 2024)
